Where two headings read alike, the source gives them in different places. Where a SMILES comes first, the peptide text is derived from it. [ ]: non-standard residue; d: D form.
Columns and labels:
[1] = molecular target: RCA60 (Ricinus communis, UniProt P02879); format: binding
[2] = molecular target: BoNT/A (Clostridium botulinum, UniProt P0DPI0); format: binding
[3] = molecular target: BoNT/B neurotoxin (Clostridium botulinum, UniProt P10844); format: binding
[4] = molecular target: BoNT/B (Clostridium botulinum, UniProt P10844); format: binding
[5] = molecular target: BotB complex (Clostridium botulinum, UniProt P10844); format: binding
[6] = mouse, in vivo
[7] = molecular target: T1, ConA (Canavalia ensiformis, Jack Bean Lectin) (Canavalia ensiformis, UniProt P02866); experiment: Bead library screen, binding of AP-ConA; settings: peptide on TentaGel bead; AP / NBT-BCIP detection
T1 construct: purchased EY Laboratories (San Mateo, Calif.)

Sequence of BoNT/B (P10844 whole entry, looked up): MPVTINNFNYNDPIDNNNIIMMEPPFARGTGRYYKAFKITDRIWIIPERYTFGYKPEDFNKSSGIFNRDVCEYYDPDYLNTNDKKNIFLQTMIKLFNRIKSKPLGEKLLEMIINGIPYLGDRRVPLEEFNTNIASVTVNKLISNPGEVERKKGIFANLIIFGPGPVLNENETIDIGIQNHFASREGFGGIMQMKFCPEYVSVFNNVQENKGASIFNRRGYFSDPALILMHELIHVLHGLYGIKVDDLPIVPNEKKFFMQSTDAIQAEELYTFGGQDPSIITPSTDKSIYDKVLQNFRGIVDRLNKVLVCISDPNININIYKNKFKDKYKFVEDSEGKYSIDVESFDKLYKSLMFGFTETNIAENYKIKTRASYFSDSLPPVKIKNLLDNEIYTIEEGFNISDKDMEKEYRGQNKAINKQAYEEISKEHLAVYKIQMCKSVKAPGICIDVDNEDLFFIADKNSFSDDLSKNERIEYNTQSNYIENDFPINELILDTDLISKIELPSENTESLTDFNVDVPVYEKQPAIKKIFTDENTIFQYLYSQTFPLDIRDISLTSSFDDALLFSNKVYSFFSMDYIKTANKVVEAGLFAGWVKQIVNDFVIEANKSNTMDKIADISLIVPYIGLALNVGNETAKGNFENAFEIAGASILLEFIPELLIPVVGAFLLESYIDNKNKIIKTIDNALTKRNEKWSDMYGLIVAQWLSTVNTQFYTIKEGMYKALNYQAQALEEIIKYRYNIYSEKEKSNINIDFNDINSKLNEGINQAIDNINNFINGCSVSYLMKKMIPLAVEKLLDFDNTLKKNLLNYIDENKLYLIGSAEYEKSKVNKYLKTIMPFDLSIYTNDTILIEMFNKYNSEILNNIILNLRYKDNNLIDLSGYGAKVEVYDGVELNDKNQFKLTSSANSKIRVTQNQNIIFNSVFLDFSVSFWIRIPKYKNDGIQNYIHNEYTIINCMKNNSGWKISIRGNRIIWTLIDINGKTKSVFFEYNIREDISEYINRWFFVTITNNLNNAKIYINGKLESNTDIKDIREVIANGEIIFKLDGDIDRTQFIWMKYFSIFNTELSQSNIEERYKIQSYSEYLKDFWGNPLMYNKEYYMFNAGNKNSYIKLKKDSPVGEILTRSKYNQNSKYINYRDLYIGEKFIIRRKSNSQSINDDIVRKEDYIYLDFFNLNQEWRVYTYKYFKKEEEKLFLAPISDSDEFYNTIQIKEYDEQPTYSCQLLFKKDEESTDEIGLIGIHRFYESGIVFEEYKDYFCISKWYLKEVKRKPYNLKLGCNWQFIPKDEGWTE
Sequence of BoNT/B neurotoxin (P10844 whole entry, looked up): as above
Sequence of BotB complex (P10844 2-1291 limits assumed, one chain of several): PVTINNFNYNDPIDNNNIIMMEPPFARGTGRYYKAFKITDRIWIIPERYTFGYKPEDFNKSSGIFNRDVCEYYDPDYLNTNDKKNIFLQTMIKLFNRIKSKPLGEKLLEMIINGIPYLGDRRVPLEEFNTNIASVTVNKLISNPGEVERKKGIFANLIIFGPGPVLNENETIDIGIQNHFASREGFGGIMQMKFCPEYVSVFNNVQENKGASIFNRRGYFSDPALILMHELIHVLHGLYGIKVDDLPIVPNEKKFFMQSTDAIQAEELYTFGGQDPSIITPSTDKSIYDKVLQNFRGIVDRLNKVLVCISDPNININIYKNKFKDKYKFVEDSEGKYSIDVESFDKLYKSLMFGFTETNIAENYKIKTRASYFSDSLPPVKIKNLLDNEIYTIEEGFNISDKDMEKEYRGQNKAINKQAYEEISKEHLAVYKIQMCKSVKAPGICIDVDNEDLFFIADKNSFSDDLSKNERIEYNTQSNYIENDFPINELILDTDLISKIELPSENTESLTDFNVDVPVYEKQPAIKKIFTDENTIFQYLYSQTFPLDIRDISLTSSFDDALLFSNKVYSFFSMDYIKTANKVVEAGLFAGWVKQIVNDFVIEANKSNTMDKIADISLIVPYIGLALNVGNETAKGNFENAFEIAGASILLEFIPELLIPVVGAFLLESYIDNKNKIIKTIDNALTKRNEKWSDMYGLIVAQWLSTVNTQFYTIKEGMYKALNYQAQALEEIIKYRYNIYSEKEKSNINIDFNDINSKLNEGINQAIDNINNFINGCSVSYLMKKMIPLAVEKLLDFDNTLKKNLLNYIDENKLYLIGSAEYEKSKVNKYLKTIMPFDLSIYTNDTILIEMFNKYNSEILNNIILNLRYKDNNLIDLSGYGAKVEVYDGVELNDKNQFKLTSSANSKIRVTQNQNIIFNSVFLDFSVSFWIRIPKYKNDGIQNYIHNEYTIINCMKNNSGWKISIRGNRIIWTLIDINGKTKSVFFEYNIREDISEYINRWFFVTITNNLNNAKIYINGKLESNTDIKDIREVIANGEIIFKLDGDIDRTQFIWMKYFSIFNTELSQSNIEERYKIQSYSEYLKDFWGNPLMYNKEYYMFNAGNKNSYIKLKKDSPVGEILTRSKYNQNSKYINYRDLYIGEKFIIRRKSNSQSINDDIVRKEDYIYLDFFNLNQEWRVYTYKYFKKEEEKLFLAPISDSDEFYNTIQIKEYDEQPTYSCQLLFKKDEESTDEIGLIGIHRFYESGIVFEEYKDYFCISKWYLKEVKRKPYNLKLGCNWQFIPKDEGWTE

| Compound | Saturation Concentration [1] [nM] | binding of BoNT/A in the microplate binding assay [2] | binding of BoNT/B to D-peptide bead (positive bead sequenced) [3] | binding of BoNT/B in the microplate binding assay [4] | other results |
| --- | --- | --- | --- | --- | --- |
| C[C@@H](N)C(=O)N[C@H](Cc1ccccc1)C(=O)N[C@H](Cc1ccc(O)cc1)C(=O)N[C@H](C)C(=O)N[C@H](Cc1ccc(O)cc1)C(=O)N[C@H](CCCCN)C(=O)N[C@H](CCCCN)C(=O)N[C@H](CCCCN)C(=O)O [AFYAY] (H-[dA][dF][dY][dA][dY][dK][dK][dK]-OH; C-terminus assumed) | 100 | – | – | – | – |
| C[C@@H](NC(=O)CN)C(=O)N[C@H](Cc1ccccc1)C(=O)N[C@H](Cc1ccccc1)C(=O)N[C@H](Cc1c[nH]c2ccccc12)C(=O)N[C@H](CCCCN)C(=O)N[C@H](CCCCN)C(=O)N[C@H](CCCCN)C(=O)O [GAFFW] (H-G[dA][dF][dF][dW][dK][dK][dK]-OH; C-terminus assumed) | – | bound | identified | bound | – |
| NCCCC[C@@H](NC(=O)[C@@H](CCCCN)NC(=O)[C@@H](CCCCN)NC(=O)[C@@H](Cc1ccc(O)cc1)NC(=O)[C@@H](Cc1ccccc1)NC(=O)[C@@H](Cc1ccccc1)NC(=O)[C@@H](Cc1ccccc1)NC(=O)CN)C(=O)O [GFFFY] (H-G[dF][dF][dF][dY][dK][dK][dK]-OH; C-terminus assumed) | – | bound | binding | bound | Saturation Concentration [2]: 3 to 4 nM; Kd ([2]; read-out: Estimated Kd): 1 to 2 nM; Saturation Concentration [4]: 3 to 4 nM; Kd ([4]; read-out: Estimated Kd): 1 to 2 nM; Saturation Concentration [5]: 2.3 nM; binding of BotB complex in the microplate binding assay [5]: bound; Kd ([5]; read-out: Estimated Kd): 0.022 nM |
| NCCCC[C@@H](NC(=O)[C@@H](CCCCN)NC(=O)[C@@H](CCCCN)NC(=O)[C@@H](Cc1ccc(O)cc1)NC(=O)[C@@H](Cc1c[nH]c2ccccc12)NC(=O)CNC(=O)[C@@H](Cc1ccccc1)NC(=O)CN)C(=O)O [GFGWY] (H-G[dF]G[dW][dY][dK][dK][dK]-OH; C-terminus assumed) | – | bound | identified | bound | – |
| NCCCC[C@@H](NC(=O)[C@@H](CCCCN)NC(=O)[C@@H](CCCCN)NC(=O)[C@@H](Cc1ccc(O)cc1)NC(=O)CNC(=O)[C@@H](Cc1c[nH]c2ccccc12)NC(=O)[C@@H](Cc1ccccc1)NC(=O)CN)C(=O)O [GFWGY] (H-G[dF][dW]G[dY][dK][dK][dK]-OH) | – | – | – | – | signs of toxicity ([6]; ip): no apparent toxicity; signs of toxicity ([6]; iv): no apparent toxicity |
| NCCCC[C@@H](NC(=O)[C@@H](CCCCN)NC(=O)[C@@H](CCCCN)NC(=O)[C@@H](Cc1ccccc1)NC(=O)[C@@H](Cc1ccccc1)NC(=O)[C@@H](Cc1ccc(O)cc1)NC(=O)[C@@H](Cc1ccccc1)NC(=O)CN)C(=O)O [GFYFF] (H-G[dF][dY][dF][dF][dK][dK][dK]-OH; C-terminus assumed) | 100 | – | binding | – | binding of ConA to D-peptide bead (positive bead sequenced) [7]: binding |
